# Data reported in patent US20200399262A1, “COMPOUNDS FOR INHIBITING PROTEIN DEGRADATION AND METHODS OF USE THEREOF IN THE TREATMENT OF CANCER” (PI Therapeutics Ltd, priority 2018, published 2020).
# Columns and labels:
# proteasome = assay: Proteasome activity (Proteasome-GLO) in intact MM1.S cells; assay type: cell-based; conditions: 3 hr at 37° C.
# Experimental: Proteasome activity was measured in intact MM1.S cells as cleavage of peptide substrates, specific for Trypsin like (TL), Chemotrypsin like (CTL) and Caspase like (PL) activities of the proteasome following treatment with Compound B1, Compound AA or Bortezomib (BTZ) at ˜EC50 concentrations for 3 hr at 37° C. BTZ was used as positive control.
# Proteasome activity. The assay was performed only when cell viability is ≥90%. Cells were seeded in 96-well white clear bottom plates and treated with diluted compounds or vehicle control in triplicates for 3 hours at various concentrations. Catalytic activity was measured using three luminogenic proteasome substrates: Suc-LLVY-aminoluciferin (Succinyl-leucine-leucine-valine-tyrosine-aminoluciferin), Z-LRR-aminoluciferin (Z-leucine-arginine-arginine-aminoluciferin) and Z-nLPnLD-aminoluciferin (Z-norleucine-proline-norleucine-aspartate-aminoluciferin) for the chymotrypsin-like, trypsin-like and caspase-like activities, respectively (Proteasome-GLO, Promega). The emitted light was proportional to the proteasomal activity. Catalytic activity was calculated as the percent activity from control vehicle-treated cells.
# MM1.S cells, were treated with Compound B1, Compound AA or Bortezomib (BTZ) at various concentrations for 3 hr at 37° C. […] Proteasome activity was measured by cleavage of proteasome-specific peptide substrates for TL, CTL and PL activities.
# [1] = test system: PBMCs from healthy donors; assay: In-vitro safety in PBMCs from healthy donors (ATPlite viability); assay type: cell-based; conditions: for therapeutic window, EC50 (PBMC)/EC50 (MM1.S) ratio: 5 healthy donor PBMC samples, viability 48 h later; for therapeutic window, EC50 (PBMC)/EC50 (MM1.S) ratio / cytotoxicity to PBMCs from healthy donors: 6 h treatment; for sensitivity of MM1.S cells versus PBMCs from healthy donors: 6 hr exposure, viability following 48 h of incubation; for cytotoxicity to PBMCs from healthy donors: viability 48 h later (ATPlight assay)
# Experimental: FIG. 5 depicts the in-vitro safety of Compound B1 and Compound AA in Peripheral Blood Mononuclear Cells (PBMCs) from healthy donors respectively. MM1.S cells and normal PBMCs from healthy donors were treated with various concentrations of indicated compounds for 6 h and then analyzed 48 h later for cell viability (ATPlight assay). […] Calculated therapeutic windows: […], generated from 5 healthy donor PBMC samples, based on mean viability data.
# PBMCs from healthy donors were exposed to Compound B1 and Compound AA for 6 hr and analyzed for viability by ATPight following 48 h of incubation. Results are representative of PBMCs from 5 healthy volunteers (FIG. 5). EC50 (PBMC)/EC50 (MM1.S) ratio, generated from 5 healthy donor PBMC samples, is shown for Compound B1, Compound AA and other UPS inhibitors [ixazomib, Bortezomib (BTZ) and CB5083].
# [2] = test system: poly-ubiquitinated proteins; assay: Western blot of poly-ubiquitinated proteins in MM1.S cells; assay type: cell-based; conditions: SDS-PAGE immunoblot
# Experimental: MM1.S cells were treated with Compound B1 (FIG. 1A), Compound AA (FIG. 1B) and Compound E1 (FIG. 1C) for indicated periods of time. Following treatment, the cells were harvested, and the lysates resolved on SDS-PAGE. Transferred membranes were blotted with antibodies as indicated. Actin was used as loading control.
# Protein analysis by Western blot. At the end of treatment period, the cells were lysed with M-PER mammalian protein extraction reagent (ThermoFisher Scientific) supplemented with protease inhibitors. Equal protein amounts were resolved on pre-cast SDS-PAGE (ThermoFisher Scientific) and transferred to a PVDF membrane. The membrane was immunoblotted with antibodies as indicated. The following antibodies were used: Ub MAb (SC-8017, Santa-Cruz), ATF4, ATF6, phospho JNK, JNK (Cell signaling); eIF2alpha, phospho eIF2alpha (Novus).
# MM1.S xenograft = assay: MM1.S subcutaneous flank xenograft in athymic nude mice; assay type: in vivo; conditions: for MM tumor growth compared to vehicle control / body weight % changes: TIW for 21 days; for Blood chemistry profiles (liver or kidney toxicity): TIW, treated mice
# Excerpt: FIG. 4A-4D depicts the growth inhibition of MM1.S xenograft in nude mice by Compound B1 (FIG. 4A, FIG. 4B) and Compound AA (FIG. 4C, FIG. 4D). FIG. 4A and FIG. 4C show tumor growth inhibition observed at end point measurements by Compound B1 and AA respectively. […] MM.1S cells (5×10^6 cells/mouse) were implanted in the rear flank of mail mice (6 weeks of age at the time of tumor implantation). On Day 20-23, mice were randomized for equivalent distribution of tumor volumes to treatment groups (n=5/group) and treated IV with vehicle, compound B1 (FIG. 4A) and compound AA (FIG. 4C), three time a week (TIW) for 21 days. Data are presented as mean tumor volume±SD. Body weight % changes in treated animals observed during the course of the study for compound B1 (FIG. 4B) and Compound AA (FIG. 4D).
# Animal xenograft models. MM1.S, HCT-116, SW620 cell lines were purchased from ATCC and used for xenograft model. The cells were cultured in RPMI medium (Sigma-Aldrich) supplemented with 10% fetal bovine serum (FBS) and divided for up to 5 passages. Shortly prior to injection, cell suspension was mixed with Matrigel at 1:1 (V/V) and injected subcutaneously to the rear flank area of male nude athymic 6 weeks old mice to obtain administration of 5×10^6 cells/animal. On day 20-23, when tumor volume reached 100-150 mm^3, mice were randomized for equivalent distribution of tumor volumes to treatment groups (n=5/group) and treated via intravenous injection.
# OVCAR-4 = assay: NCI60 screen cytotoxicity; assay type: cell-based; conditions: Homo sapiens, Ovarian cancer, read-out: Compound B1 EC50
# 786-0 = assay: NCI60 screen cytotoxicity; assay type: cell-based; conditions: Homo sapiens, Renal cancer, read-out: Compound B1 EC50
# MDA-MB-231 = assay: NCI60 screen cytotoxicity; assay type: cell-based; conditions: Homo sapiens, Breast cancer, read-out: Compound B1 EC50
# SNB-19 = assay: NCI60 screen cytotoxicity; assay type: cell-based; conditions: Homo sapiens, CNS, read-out: Compound B1 EC50
# NCI-H460 = assay: NCI60 screen cytotoxicity; assay type: cell-based; conditions: Homo sapiens, Lung cancer, read-out: Compound B1 EC50
# A-549 = assay: NCI60 screen cytotoxicity; assay type: cell-based; conditions: Homo sapiens, A549, Lung cancer, read-out: Compound B1 EC50
# OVCAR-5 = assay: NCI60 screen cytotoxicity; assay type: cell-based; conditions: Homo sapiens, Ovarian cancer, read-out: Compound B1 EC50
# COLO-205 = assay: NCI60 screen cytotoxicity; assay type: cell-based; conditions: Homo sapiens, Colon cancer, read-out: Compound B1 EC50
Structure (SMILES),"inhibition of the enzymatic functions of the proteasome (TL, CTL and PL activities) (proteasome)","therapeutic window, EC50 (PBMC)/EC50 (MM1.S) ratio [1]",sensitivity of MM1.S cells versus PBMCs from healthy donors [1],cytotoxicity to PBMCs from healthy donors [1],accumulation of poly-ubiquitinated proteins [2],MM tumor growth compared to vehicle control (MM1.S xenograft; 4 mg/kg IV),body weight % changes (MM1.S xenograft; 4 mg/kg IV),Blood chemistry profiles (liver or kidney toxicity) (MM1.S xenograft; 4 mg/kg IV),EC50 (OVCAR-4) [nM],EC50 (786-0) [nM],EC50 (MDA-MB-231) [nM],EC50 (SNB-19) [nM],EC50 (NCI-H460) [nM],EC50 (A-549) [nM],EC50 (OVCAR-5) [nM],MM tumor growth compared to vehicle control (MM1.S xenograft; 5 mg/kg IV),body weight % changes (MM1.S xenograft; 5 mg/kg IV),Blood chemistry profiles (liver or kidney toxicity) (MM1.S xenograft; 5 mg/kg IV),EC50 (COLO-205) [nM]
CN(C)CCCS(=O)(=O)N1C/C(=C\c2ccc(C#N)cc2)C(=O)/C(=C/c2ccc(C#N)cc2)C1 [Compound AA],does not Inhibit,larger Tx window than competing UPS inhibitors,more sensitive,"less cytotoxic to PBMCs from healthy donors than Ixazomib, Bortezomib (BTZ) and CB5083",observable accumulation of poly-ubiquitinated proteins,significantly inhibited MM tumor growth,No significant weight loss,no clinical abnormalities suggestive of liver or kidney toxicity,–,–,–,–,–,–,–,–,–,–,–
CN(C)CC(=O)NCC(=O)N1C/C(=C\c2ccc(C#N)cc2)C(=O)/C(=C/c2ccc(C#N)cc2)C1 [Compound B1],does not Inhibit,larger Tx window than competing UPS inhibitors,more sensitive,"less cytotoxic to PBMCs from healthy donors than Ixazomib, Bortezomib (BTZ) and CB5083",observable accumulation of poly-ubiquitinated proteins,–,–,–,300 to 1000,300 to 1000,< 300,300 to 1000,< 300,300 to 1000,< 300,significantly inhibited MM tumor growth,No significant weight loss,no clinical abnormalities suggestive of liver or kidney toxicity,300 to 1000
